By EC50 is commonly meant the concentration that produces a half-maximal response.

This is an account of results in US12180165B2, “Human TLR8-selective agonists” (University of Kansas, priority 2015, dated 2024).

Structures can show the parent of a compound that is named as a salt.

Assay [1] has as its system TLR-2/-3/-4/-5/-7/-9 and NOD-1/NOD-2. Briefly: TLR-2/-3/-4/-5/-7/-9 and NOD-1/NOD-2 counter-screens (reporter gene assays). It is filed as cell-based, human. For orientation: Counterscreens check selectivity or assay interference.
Description: (§1) HEK293 cells stably co-transfected with the appropriate hTLR (or NOD) and secreted alkaline phosphatase (sAP) were maintained in HEK-BLUE™ Selection medium. Stable expression of secreted alkaline phosphatase (sAP) under control of NF-κB/AP-1 promoters is inducible by appropriate TLR/NOD agonists, and extracellular sAP in the supernatant is proportional to NF-κB induction. Reporter cells were incubated at a density of ˜10^5 cells/ml in a volume of 80 μl/well, in 384-well, flat-bottomed cell culture-treated microtiter plates in the presence of graded concentrations of stimuli. sAP was assayed spectrophotometrically using an alkaline phosphatase-specific chromogen (present in HEK-detection medium as supplied by InvivoGen) at 620 nm.
Assay [2] concerns the target T1, human TLR8 (Homo sapiens, UniProt Q9NR97).
T1 construct: expressed in transfected cells; host or cells: HEK293
T1 sequence (Q9NR97 27-1041): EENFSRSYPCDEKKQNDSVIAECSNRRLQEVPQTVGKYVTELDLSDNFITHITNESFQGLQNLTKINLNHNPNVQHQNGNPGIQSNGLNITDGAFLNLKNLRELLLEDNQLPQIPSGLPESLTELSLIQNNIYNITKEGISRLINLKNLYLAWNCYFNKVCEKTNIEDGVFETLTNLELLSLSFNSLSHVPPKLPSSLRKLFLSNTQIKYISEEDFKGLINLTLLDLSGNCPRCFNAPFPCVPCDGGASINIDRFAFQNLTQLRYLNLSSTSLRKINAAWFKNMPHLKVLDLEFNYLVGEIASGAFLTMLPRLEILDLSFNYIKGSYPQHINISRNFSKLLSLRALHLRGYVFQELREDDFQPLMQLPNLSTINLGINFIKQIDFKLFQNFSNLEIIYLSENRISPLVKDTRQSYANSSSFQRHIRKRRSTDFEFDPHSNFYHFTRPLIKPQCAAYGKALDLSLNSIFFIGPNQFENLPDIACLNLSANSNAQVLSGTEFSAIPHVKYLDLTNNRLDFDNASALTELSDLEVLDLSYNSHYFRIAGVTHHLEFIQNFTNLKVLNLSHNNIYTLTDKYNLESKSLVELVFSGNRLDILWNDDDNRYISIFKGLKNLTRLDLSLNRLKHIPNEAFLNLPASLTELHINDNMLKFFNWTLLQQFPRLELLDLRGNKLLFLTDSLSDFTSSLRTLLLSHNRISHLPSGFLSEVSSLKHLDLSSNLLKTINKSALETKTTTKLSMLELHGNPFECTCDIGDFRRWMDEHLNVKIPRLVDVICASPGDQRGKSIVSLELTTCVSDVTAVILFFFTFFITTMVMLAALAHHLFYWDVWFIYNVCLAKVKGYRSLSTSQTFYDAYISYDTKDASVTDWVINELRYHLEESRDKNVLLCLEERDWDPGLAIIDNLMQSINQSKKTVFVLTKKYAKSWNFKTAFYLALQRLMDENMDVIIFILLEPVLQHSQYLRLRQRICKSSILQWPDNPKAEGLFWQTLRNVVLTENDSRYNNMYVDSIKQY
Briefly: Human TLR8-specific reporter gene assay (NF-κB induction, sAP readout in HEK293 cells). The assay is classed as cell-based. The conditions noted are these: EC50 in human TLR8-specific reporter gene assay. On the technique in general: Reporter assays use an easily measured gene product as a stand-in for the process of interest.
Description: as §1

Assay [3] deals with T1, human TLR8. The conditions noted are these: reference compounds, literature values (Kokatla et al.); read-out: TLR8 EC50 (previously reported); cited from earlier work.
Another assay relates to CD14+ monocytes. Briefly: Eight-color flow cytometry of activation markers in human whole blood. The note with it: FIG. 5. The assay is classed as cell-based.
For a further assay, the system named is human PBMCs. Briefly: Cytokine/chemokine induction in human peripheral blood mononuclear cells (multiplexed bead array). It is filed as cell-based. The note with it: human PBMCs as well as whole human blood, FIG. 3. From the text:
Immunoassays for cytokines.

Description for CD14+ monocytes: Eight-color Flow-cytometric immunostimulation experiments: Cell surface marker upregulation was determined by flow cytometry using protocols as described previously (Hood, J. D. et al. Hum. Vaccin. 2010, 6, 332-335), and modified for rapid-throughput. […] Serial dilutions of selected compounds were performed using a Bio-Tek Precision 2000 XS liquid handler in sterile 96-well polypropylene plates, to which were added 100 mL aliquots of anticoagulated whole human blood. The plates were incubated at 37° C. for 16 h. Negative (endotoxin free water) controls were included in each experiment. The following fluorochrome-conjugated antibodies were used: CD3-PE, CD19-FITC, CD56-APC (eBioscience, San Diego, CA), CD14-V500, CD28 PE-Cy7, CD40 V450, CD80 APC-H7, CD86 PerCP-Cy5.5 (Becton-Dickinson Biosciences, San Jose, CA). Following incubation, 2.5 μg of each antibody was added to wells with a liquid handler, and incubated at 4° C. in the dark for 60 min. […] CD28, CD40, CD80, and CD86 activation in the major leukocyte populations, viz., natural killer lymphocytes (NK cells: CD3-CD56+), cytokine-induced killer phenotype (CIK cells: CD3+CD56+), B lymphocytes (CD19+CD3-), T lymphocytes (CD3+CD56-), monocytes (CD14+), polymorphonuclear cells (CD14-) were quantified using FlowJo v 7.0 software (Treestar, Ashland, OR).

For the compound `CCCCCc1c(N)nc2ccccc2c1Cc1ccc(CN)cc1` [Compound 9b, 4-(4-(Aminomethyl)benzyl)-3-pentylquinolin-2-amine dihydrochloride], the “specificity for TLR8” value in assay [1] is on record as “retained specificity for TLR8”.
In the case of `CCCCCc1cc2c(Cc3ccccc3)cccc2nc1N` [Compound 17d, 5-Benzyl-3-pentylquinolin-2-amine], on human TLR8 [2], the “TLR8 Agonistic Activity (nM)” value is reported as “Inactive”.
Take `CCCCCc1cc2c(-c3cccc(CN)c3)cccc2nc1N` [Compound 20a, 5-(3-(Aminomethyl)phenyl)-3-pentylquinolin-2-amine]: the “TLR8 Agonistic Activity (nM)” value at human TLR8 [2] is reported as “Inactive”.
On the same count and under the same terms, with `CCCCCc1cc2cccc(CCCCN)c2nc1N` [Compound 37, 8-(4-Aminobutyl)-3-pentylquinolin-2-amine] the entry was “Inactive”.
Consider C2-butyl furo[2,3-c]quinoline, for which the EC50 on human TLR8 [3] is 1600 nM.
With `CCCCCc1c(N)nc2ccccc2c1Cc1cccc(CN)c1` [Compound 9a, 4-(3-(Aminomethyl)benzyl)-3-pentylquinolin-2-amine dihydrochloride], the “specificity for TLR8” value in assay [1] is on record as “retained specificity for TLR8”.
As for `CCCCCc1cc2c(CCCCCN)cccc2nc1N` [Compound 34b, 5-(5-Aminopentyl)-3-pentylquinolin-2-amine], in the assay with CD14+ monocytes, the CD40 upregulation result is listed as “upregulate CD40” and the CD80 expression result is recorded as “strongly induces CD80 expression”. Further, the “induction of proinflammatory cytokines including TNF-α, IL-12 and IFN-γ” value in the assay with human PBMCs is reported as “induction of a specific set of proinflammatory cytokines was observed”.
For the compound `CCCCCc1cc2c(Cc3cccc(C(N)=O)c3)cccc2nc1N` [Compound 18d, 3-((2-Amino-3-pentylquinolin-5-yl)methyl)benzamide], the “TLR8 Agonistic Activity (nM)” value on human TLR8 [2] is “Inactive”.
